Patent publication US20100267796A1, “THERAPEUTIC AGENT FOR IRRITABLE BOWEL SYNDROME” (KYOWA HAKKO KOGYO CO., LTD., priority 2006, published 2010)

What was measured:
[1] = test system: adenosine uptake in HEK293 cells; assay: Adenosine uptake inhibitory activity in HEK293 cells ([3H]adenosine uptake); type: cell-based; details: Homo sapiens, 1 min, [3H]adenosine uptake relative to 100% of control, HEK293 cells
Description: A test was conducted according to the method of Leung et al. [Biochemical Pharmacology, Vol. 70, pp. 355-362 (2005)]. HEK293 cells (ATCC, Registration No. CRL-1537) were subcultured in a Dulbecco's modified Eagle's medium (manufactured by Invitrogen Corporation) containing 10% of fatal calf serum in a CO2 incubator using a poly-L-lysine-coated 10-cm dish (manufactured by Asahi Techno Glass Corporation). The cultured cells were seeded in a poly-L-lysine-coated 24-well plate (manufactured by Asahi Techno Glass Corporation) and cultured until the cells become confluent. […] After incubation at room temperature for 15 minutes, 0.2 mL of a Na^+-free buffer containing 100 nmol/L of [^3H] adenosine (manufactured by GE Health Care Bioscience Corporation) and each compound at each of 50 nmol/L and 500 nmol/L was added to each well. After 1 minute, the reaction solution was removed with an aspirator, and the wells were washed twice with 0.5 mL of ice-cooled PBS (phosphate-buffered saline). Then, 0.5 mL of PBS containing 5% Triton X-100 was added to each well, and the cells were scraped with a scraper. The solution in each well was homogenized by passing through a 20 G injection needle ten times and transferred to a scintillation vial containing 4 mL of clear sol (manufactured by Nacalai Tesque Inc.). Further, the wells were washed with 0.5 mL of PBS containing 5% Triton X-100, and the washing solution was added to the same vial. After sufficient agitation, radioactivity was measured using a liquid scintillation counter (Aloka Co., Ltd., LSC-3500). A relative value to 100% of an uptake of a control was indicated by percentage.

[2] = test system: restraint stress-induced defecation; assay: Action on restraint stress-induced defecation; type: in vivo, male Wistar rats; details: 10 mg/kg p.o. 1 hour before restraint stress; measured 1 hour after stress initiation; rats, n=10; control of each sub-table 1.06-1.71 g
Description: An experiment was carried out according to the method of Kishibayashi et al. [Japanese Journal of Pharmacology, Vol. 69, No. 4, pp. 495-502 (1993)]. In the experiment, male Wistar rats aged 6 to 7 weeks (supplied from Charles River Laboratories Japan, Inc.) were used. […] The rats were lightly anesthetized with diethyl ether, and the thoracic trunk and the forelimbs were wrapped with a tape to produce mild stress. One hour after stress initiation, the wet weight of fecal pellets was measured. Each drug solution was orally administered 1 hour before restraint stress. A test compound was suspended at a concentration of 2 mg/mL in an aqueous solution of 0.5 w/v % methyl cellulose 400 cP and orally administered at a volume of 5 mL/kg (at a dose of 10 mg/kg). In a control, an aqueous solution of 0.5 w/v % methyl cellulose 400 cP was administered. Ten rats were used in each group. […] YM060, a serotonin 5-HT3 receptor antagonist [The Journal of Pharmacology and Experimental Therapeutics, Vol. 259, No. 2, pp. 815-819 (1991), Astellas Pharma. Inc., online, internet (URL: […].com/jp/companry/news/2006/pdf/060131.pdf)], which is being applied as a therapeutic agent for irritable bowel syndrome, was administered at a dose of 0.1 mg/kg.

[3] = test system: capsaicin-induced visceral pain; assay: Action on capsaicin-induced visceral pain model; type: in vivo, male ddY mice; details: doses of 3 and 30 mg/kg p.o. 30 minutes before 0.1% capsaicin into the colon; mice, n=10; 60 minutes
Description: It has been reported that a visceral pain is induced by the administration of capsaicin into the colon [Pain, Vol. 92, No. 3, pp. 335-342 (2001)].
A suspension of Compound 1-1 was prepared with an agate mortar using 0.5 w/v % MC.
Capsaicin (Sigma-Aldrich) was dissolved in a physiological saline solution containing 10% ethanol (Kanto Chemical co., Ltd.) and 10% polyoxyethylene (20) sorbitan monooleate (Tween 80, Wako Pure Chemical Industries, Ltd.), and the resultant solution was used. A test compound was orally administered in a volume of 10 mL/kg, and MC was administered to a control group in the same volume.
Male ddY mice (Japan SLC, Inc.) with a body weight of 27 g to 29 g were purchased and used in an experiment. After inspection and acclimation for 2 days or more, the mice showing favorable increases in body weight and no obvious abnormality were used. […]
After the oral administration of Compound 1-1 or 0.5 w/v % MC, each mouse was housed in a cage and left therein. […] Then, each of the mice was placed in an acrylic cage (8 cm in length×8 cm in width×15 cm in height) and recorded with a video (Sony) for 1 hour. After the recording, the following 4 behaviors and symptoms were measured as indexes of capsaicin-induced visceral pain at an interval of 5 minutes. […]

In the case of `C[C@](O)(C(=O)Nc1cccc2c1C(=O)c1sccc1CS2(=O)=O)C(F)(F)F` [Compound 1-1], the activity at 0.05 µM ([1]; 50 nmol/L compound, n=2) is reported as 68%, the activity at 0.5 µM ([1]; 500 nmol/L compound) is reported as 29% and the “Wet weight of fecal pellets” value [2] is reported as 0.27 ± 0.06 g. For the same compound, the “numbers of pain-related behaviors” value [3] was “suppressed the pain-related behaviors”.
